“And” between values parts separate entries of the source, which are not always exact repeats. Equal values may be shown once.
What was measured:
[1] = Pharmacokinetic study in cynomolgus monkeys after oral (nasogastric) gavage, sublingual and intravenous administration; type: in vivo; details: monkey
Procedure: A pharmacokinetic study was done in cynomolgus monkeys following single oral (nasogastric) gavage, sublingual, and intravenous administration. […] Calibration curves, blanks, and analytical QCs were prepared in monkey plasma (K2EDTA). The extracts were evaporated to dryness, reconstituted, and then analyzed by LC-MS/MS. The calibration range was 0.250-250 ng/mL for both analytes.
If the criteria for either the calibration curve or the analytical QCs were not met, the analytical run was rejected. […] No deviations were found during the bioanalytical phase of the study conducted by Origin. Calibration curves were derived from the individual analyte to internal standard peak area ratios using the least squared regression of the ratio versus the nominal concentration of the calibration standard, prepared in duplicate. The regression was then used to back-calculate the concentration of each calibration standard, QC sample and study sample. […] Analyst® Software Version 1.6.3 (Applied Biosystems-MDS Sciex), operated with Windows® (Microsoft), was used for instrument control, data acquisition, and peak integrations. Peak area ratios, standard curve regressions, and sample concentration/accuracy values were calculated with Analyst® Software Version 1.6.3. Other results (e.g., mean statistics) were calculated with Excel® (Microsoft).
There was no apparent sex difference for the second formulation. […] A fourth formulation comprising the composition B listed in Table 54 was also administered in monheys.

[2] = physchem
Text: Crucial to the efficacy of any treatment by a pharmaceutical composition is the overall systemic bioavailability of the pharmaceutical composition used for said treatment. […] LogP is one measure of lipophyilicity, and is the octal:water partition coefficient expressed as a log ratio of molecule in octanol relative to water after mixing.

concentration at 2 h ([1]; cynomolgus monkey, plasma, other: sublingual, 5 mg/kg, Plasma Bumetanide Dibenzylamide concentration, Median, SL, dose column 5 mg/kg (title 30 mg/kg), Fourth Formulation (Form 2), 2.0 h, N=4): 0 ng/mL
concentration at 4 h ([1]; cynomolgus monkey, plasma, other: sublingual, 5 mg/kg, Plasma Bumetanide Dibenzylamide concentration, Median, SL, dose column 5 mg/kg (title 30 mg/kg), Fourth Formulation (Form 2), 4.0 h, N=4): 0 ng/mL
concentration at 8 h ([1]; cynomolgus monkey, plasma, other: sublingual, 5 mg/kg, Plasma Bumetanide Dibenzylamide concentration, Median, SL, dose column 5 mg/kg (title 30 mg/kg), Fourth Formulation (Form 2), 8.0 h, N=4): 0.505 ng/mL
concentration at 24 h ([1]; cynomolgus monkey, plasma, other: sublingual, 5 mg/kg, Plasma Bumetanide Dibenzylamide concentration, Median, SL, dose column 5 mg/kg (title 30 mg/kg), Fourth Formulation (Form 2), 24.0 h, N=4): 0.182 ng/mL
concentration at 32 h ([1]; cynomolgus monkey, plasma, other: sublingual, 5 mg/kg, Plasma Bumetanide Dibenzylamide concentration, Median, SL, dose column 5 mg/kg (title 30 mg/kg), Fourth Formulation (Form 2), 32.0 h, N=4): 0 ng/mL
concentration at 0 h ([1]; cynomolgus monkey, plasma, other: sublingual, 5 mg/kg, Plasma Bumetanide Dibenzylamide concentration, SL, dose column 5 mg/kg (title 30 mg/kg), Fourth Formulation (Form 2), 0.00 h, individual animals): 0 ng/mL
concentration at 0.25 h ([1]; cynomolgus monkey, plasma, other: sublingual, 5 mg/kg, Plasma Bumetanide Dibenzylamide concentration, SL, dose column 5 mg/kg (title 30 mg/kg), Fourth Formulation (Form 2), 0.25 h, individual animals): 0 ng/mL
concentration at 0.5 h ([1]; cynomolgus monkey, plasma, other: sublingual, 5 mg/kg, Plasma Bumetanide Dibenzylamide concentration, SL, dose column 5 mg/kg (title 30 mg/kg), Fourth Formulation (Form 2), 0.50 h, individual animals): 0 ng/mL
concentration at 1 h ([1]; cynomolgus monkey, plasma, other: sublingual, 5 mg/kg, Plasma Bumetanide Dibenzylamide concentration, SL, dose column 5 mg/kg (title 30 mg/kg), Fourth Formulation (Form 2), 1.0 h, individual animals): 0 ng/mL
concentration at 0.08 h ([1]; cynomolgus, cynomolgus monkey, plasma, intravenous, 2 mg/kg, Plasma Bumetanide Dibenzylamide concentration, Median, dose column 2 mg/kg (title 30 mg/kg), Third Formulation (Form 4), 0.08 h, N=4): 1370 ng/mL
concentration at 0.5 h ([1]; cynomolgus, cynomolgus monkey, plasma, intravenous, 2 mg/kg, Plasma Bumetanide Dibenzylamide concentration, Median, dose column 2 mg/kg (title 30 mg/kg), Third Formulation (Form 4), 0.50 h, N=4): 672 ng/mL
concentration at 1 h ([1]; cynomolgus, cynomolgus monkey, plasma, intravenous, 2 mg/kg, Plasma Bumetanide Dibenzylamide concentration, Median, dose column 2 mg/kg (title 30 mg/kg), Third Formulation (Form 4), 1.00 h, N=4): 504 ng/mL
concentration at 2 h ([1]; cynomolgus, cynomolgus monkey, plasma, intravenous, 2 mg/kg, Plasma Bumetanide Dibenzylamide concentration, Median, dose column 2 mg/kg (title 30 mg/kg), Third Formulation (Form 4), 2.00 h, N=4): 297 ng/mL
concentration at 4 h ([1]; cynomolgus, cynomolgus monkey, plasma, intravenous, 2 mg/kg, Plasma Bumetanide Dibenzylamide concentration, Median, dose column 2 mg/kg (title 30 mg/kg), Third Formulation (Form 4), 4.00 h, N=4): 109 ng/mL
concentration at 8 h ([1]; cynomolgus, cynomolgus monkey, plasma, intravenous, 2 mg/kg, Plasma Bumetanide Dibenzylamide concentration, Median, dose column 2 mg/kg (title 30 mg/kg), Third Formulation (Form 4), 8.00 h, N=4): 27.2 ng/mL
concentration at 24 h ([1]; cynomolgus, cynomolgus monkey, plasma, intravenous, 2 mg/kg, Plasma Bumetanide Dibenzylamide concentration, Median, dose column 2 mg/kg (title 30 mg/kg), Third Formulation (Form 4), 24.00 h, N=4): 2.62 ng/mL
concentration at 32 h ([1]; cynomolgus, cynomolgus monkey, plasma, intravenous, 2 mg/kg, Plasma Bumetanide Dibenzylamide concentration, Median, dose column 2 mg/kg (title 30 mg/kg), Third Formulation (Form 4), 32.00 h, N=4): 0.917 ng/mL
Plasma Bumetanide Dibenzylamide concentration ([1]; IV, dose column 2 mg/kg (title 30 mg/kg), Third Formulation (Form 4), 0.08 h, individual animals): 1430 ng/mL and 1160 ng/mL and 1310 ng/mL
Plasma Bumetanide Dibenzylamide concentration ([1]; IV, dose column 2 mg/kg (title 30 mg/kg), Third Formulation (Form 4), 0.50 h, individual animals): 757 ng/mL and 555 ng/mL and 626 ng/mL
Plasma Bumetanide Dibenzylamide concentration ([1]; IV, dose column 2 mg/kg (title 30 mg/kg), Third Formulation (Form 4), 1.00 h, individual animals): 536 ng/mL and 472 ng/mL and 385 ng/mL
Plasma Bumetanide Dibenzylamide concentration ([1]; IV, dose column 2 mg/kg (title 30 mg/kg), Third Formulation (Form 4), 2.00 h, individual animals): 316 ng/mL and 278 ng/mL and 214 ng/mL
Plasma Bumetanide Dibenzylamide concentration ([1]; IV, dose column 2 mg/kg (title 30 mg/kg), Third Formulation (Form 4), 4.00 h, individual animals): 87.8 ng/mL and 129 ng/mL and 89.3 ng/mL
Plasma Bumetanide Dibenzylamide concentration ([1]; NG 30 mg/kg, First Formulation (Form 1), 0.00 h, individual animals, female monkeys): 0.00 ng/mL
Plasma Bumetanide Dibenzylamide concentration ([1]; NG 30 mg/kg, First Formulation (Form 1), 0.00 h, individual animals, male monkeys): 0.00 ng/mL
Plasma Bumetanide Dibenzylamide concentration ([1]; NG 30 mg/kg, First Formulation (Form 1), 0.25 h, individual animals, female monkeys): 0.992 ng/mL and 0.398 ng/mL
Plasma Bumetanide Dibenzylamide concentration ([1]; NG 30 mg/kg, First Formulation (Form 1), 0.25 h, individual animals, male monkeys): 0.932 ng/mL and 14.9 ng/mL
Plasma Bumetanide Dibenzylamide concentration ([1]; NG 30 mg/kg, First Formulation (Form 1), 0.50 h, individual animals, female monkeys): 1.66 ng/mL and 1.18 ng/mL
Plasma Bumetanide Dibenzylamide concentration ([1]; NG 30 mg/kg, First Formulation (Form 1), 0.50 h, individual animals, male monkeys): 3.97 ng/mL and 16.8 ng/mL
Plasma Bumetanide Dibenzylamide concentration ([1]; NG 30 mg/kg, First Formulation (Form 1), 1.00 h, individual animals, female monkeys): 8.08 ng/mL and 3.01 ng/mL
Plasma Bumetanide Dibenzylamide concentration ([1]; NG 30 mg/kg, First Formulation (Form 1), 1.00 h, individual animals, male monkeys): 12.1 ng/mL and 29.7 ng/mL
Plasma Bumetanide Dibenzylamide concentration ([1]; NG 30 mg/kg, First Formulation (Form 1), 2.00 h, individual animals, female monkeys): 11.1 ng/mL and 8.35 ng/mL
Plasma Bumetanide Dibenzylamide concentration ([1]; NG 30 mg/kg, First Formulation (Form 1), 2.00 h, individual animals, male monkeys): 157 ng/mL and 74.0 ng/mL
Plasma Bumetanide Dibenzylamide concentration ([1]; NG 30 mg/kg, First Formulation (Form 1), 4.00 h, individual animals, female monkeys): 9.83 ng/mL and 23.8 ng/mL
Plasma Bumetanide Dibenzylamide concentration ([1]; NG 30 mg/kg, First Formulation (Form 1), 4.00 h, individual animals, male monkeys): 182 ng/mL and 51.4 ng/mL
Plasma Bumetanide Dibenzylamide concentration ([1]; NG 30 mg/kg, First Formulation (Form 1), 8.00 h, individual animals, female monkeys): 17.5 ng/mL and 17.0 ng/mL
Plasma Bumetanide Dibenzylamide concentration ([1]; NG 30 mg/kg, First Formulation (Form 1), 8.00 h, individual animals, male monkeys): 99.9 ng/mL and 45.1 ng/mL
Plasma Bumetanide Dibenzylamide concentration ([1]; NG 30 mg/kg, First Formulation (Form 1), 24.00 h, individual animals, female monkeys): 3.28 ng/mL and 2.02 ng/mL
Plasma Bumetanide Dibenzylamide concentration ([1]; NG 30 mg/kg, First Formulation (Form 1), 24.00 h, individual animals, male monkeys): 21.6 ng/mL and 7.47 ng/mL
Plasma Bumetanide Dibenzylamide concentration ([1]; NG 30 mg/kg, First Formulation (Form 1), 32.00 h, individual animals, female monkeys): 0.790 ng/mL and 1.37 ng/mL
Plasma Bumetanide Dibenzylamide concentration ([1]; NG 30 mg/kg, First Formulation (Form 1), 32.00 h, individual animals, male monkeys): 9.75 ng/mL and 6.13 ng/mL
Plasma Bumetanide Dibenzylamide concentration ([1]; NG 30 mg/kg, Second Formulation (Form 3), 0.00 h, individual animals, female monkeys): 0.00 ng/mL
Plasma Bumetanide Dibenzylamide concentration ([1]; NG 30 mg/kg, Second Formulation (Form 3), 0.00 h, individual animals, male monkeys): 0.00 ng/mL
Plasma Bumetanide Dibenzylamide concentration ([1]; NG 30 mg/kg, Second Formulation (Form 3), 0.25 h, individual animals, female monkeys): 0.619 ng/mL and 0.261 ng/mL
Plasma Bumetanide Dibenzylamide concentration ([1]; NG 30 mg/kg, Second Formulation (Form 3), 0.25 h, individual animals, male monkeys): 0.250 ng/mL and 0.00 ng/mL
Plasma Bumetanide Dibenzylamide concentration ([1]; NG 30 mg/kg, Second Formulation (Form 3), 0.50 h, individual animals, female monkeys): 4.98 ng/mL and 1.71 ng/mL
Plasma Bumetanide Dibenzylamide concentration ([1]; NG 30 mg/kg, Second Formulation (Form 3), 0.50 h, individual animals, male monkeys): 1.55 ng/mL and 3.16 ng/mL
Plasma Bumetanide Dibenzylamide concentration ([1]; NG 30 mg/kg, Second Formulation (Form 3), 1.00 h, individual animals, female monkeys): 20.2 ng/mL and 7.09 ng/mL
Plasma Bumetanide Dibenzylamide concentration ([1]; NG 30 mg/kg, Second Formulation (Form 3), 1.00 h, individual animals, male monkeys): 7.56 ng/mL and 11.3 ng/mL
Plasma Bumetanide Dibenzylamide concentration ([1]; NG 30 mg/kg, Second Formulation (Form 3), 2.00 h, individual animals, female monkeys): 79.3 ng/mL and 37.8 ng/mL
Plasma Bumetanide Dibenzylamide concentration ([1]; NG 30 mg/kg, Second Formulation (Form 3), 2.00 h, individual animals, male monkeys): 16.8 ng/mL and 82.5 ng/mL
Plasma Bumetanide Dibenzylamide concentration ([1]; NG 30 mg/kg, Second Formulation (Form 3), 4.00 h, individual animals, female monkeys): 140 ng/mL and 247 ng/mL
Plasma Bumetanide Dibenzylamide concentration ([1]; NG 30 mg/kg, Second Formulation (Form 3), 4.00 h, individual animals, male monkeys): 126 ng/mL and 410 ng/mL
Plasma Bumetanide Dibenzylamide concentration ([1]; NG 30 mg/kg, Second Formulation (Form 3), 8.00 h, individual animals, female monkeys): 457 ng/mL and 674 ng/mL
Plasma Bumetanide Dibenzylamide concentration ([1]; NG 30 mg/kg, Second Formulation (Form 3), 8.00 h, individual animals, male monkeys): 785 ng/mL
Plasma Bumetanide Dibenzylamide concentration ([1]; NG 30 mg/kg, Second Formulation (Form 3), 24.00 h, individual animals, female monkeys): 9.30 ng/mL and 10.7 ng/mL
Plasma Bumetanide Dibenzylamide concentration ([1]; NG 30 mg/kg, Second Formulation (Form 3), 24.00 h, individual animals, male monkeys): 26.4 ng/mL and 8.13 ng/mL
Plasma Bumetanide Dibenzylamide concentration ([1]; NG 30 mg/kg, Second Formulation (Form 3), 32.00 h, individual animals, female monkeys): 1.63 ng/mL and 1.62 ng/mL
Plasma Bumetanide Dibenzylamide concentration ([1]; NG 30 mg/kg, Second Formulation (Form 3), 32.00 h, individual animals, male monkeys): 6.41 ng/mL and 2.08 ng/mL
Plasma Bumetanide Dibenzylamide concentration ([1]; SL, dose column 5 mg/kg (title 30 mg/kg), Fourth Formulation (Form 2), 4.0 h, individual animals): 0.00 ng/mL
Plasma Bumetanide Dibenzylamide concentration ([1]; SL, dose column 5 mg/kg (title 30 mg/kg), Fourth Formulation (Form 2), 8.0 h, individual animals): 0.380 ng/mL
Plasma Bumetanide Dibenzylamide concentration ([1]; SL, dose column 5 mg/kg (title 30 mg/kg), Fourth Formulation (Form 2), 24.0 h, individual animals): 0.363 ng/mL
Plasma Bumetanide Dibenzylamide concentration ([1]; SL, dose column 5 mg/kg (title 30 mg/kg), Fourth Formulation (Form 2), 32.0 h, individual animals): 0.00 ng/mL
logP [2]: ~5.9
SMILES: CCCCNc1cc(C(=O)N(Cc2ccccc2)Cc2ccccc2)cc(S(N)(=O)=O)c1Oc1ccccc1 [Bumetanide Dibenzylamide, N, N-dibenzyl 3-aminosulfonyl-5-butylamino-4-phenoxybenzamide]
Plasma Bumetanide Dibenzylamide concentration ([1]; IV, dose column 2 mg/kg (title 30 mg/kg), Third Formulation (Form 4), 8.00 h, individual animals): 51.4 ng/mL and 26.6 ng/mL and 27.7 ng/mL and 17.2 ng/mL
Plasma Bumetanide Dibenzylamide concentration ([1]; IV, dose column 2 mg/kg (title 30 mg/kg), Third Formulation (Form 4), 24.00 h, individual animals): 3.95 ng/mL and 0.942 ng/mL and 8.10 ng/mL and 1.28 ng/mL
Plasma Bumetanide Dibenzylamide concentration ([1]; IV, dose column 2 mg/kg (title 30 mg/kg), Third Formulation (Form 4), 32.00 h, individual animals): 1.47 ng/mL and 0.303 ng/mL and 3.80 ng/mL and 0.363 ng/mL

— US20250120932A1, “PHARMACEUTICAL COMPOSITION” (NEUROPRO THERAPEUTICS, INC., priority 2021, published 2025)
